# Assays:
# [1] = system: T47D; test: In vitro total growth inhibition against breast cancer […] cell lines was reported.; assay type: functional; conditions: Homo sapiens, read-out: Log TGI (converted)
# [2] = system: MDA-MB-231; test: In vitro growth inhibition against breast cancer MDA-MB-231/ATCC cell line was reported.; assay type: functional; conditions: Homo sapiens
# [3] = system: NCI/ADR-RES; test: In vitro growth inhibition against breast cancer NCI/ADR-RES cell line was reported.; assay type: functional; conditions: Homo sapiens
# [4] = system: T47D; test: In vitro growth inhibition against breast cancer […] cell line was reported.; assay type: functional; conditions: Homo sapiens
# [5] = system: COLO 205; test: Log of molar concentration leading to 50% cell death against colon cancer COLO 205 cell line was reported; assay type: functional; conditions: Homo sapiens, read-out: Log LC50 (the source's name) (converted)
# [6] = system: COLO 205; test: In vitro total growth inhibition against colon cancer COLO 205 cell lines was reported.; assay type: functional; conditions: Homo sapiens, read-out: Log TGI (converted)
# [7] = system: HCC 2998; test: In vitro growth inhibition against colon cancer HCC2998 cell line was reported.; assay type: functional; conditions: Homo sapiens
# [8] = system: HCC 2998; test: In vitro total growth inhibition against colon cancer HCC2998 cell lines was reported.; assay type: functional; conditions: Homo sapiens, read-out: Log TGI (converted)
# [9] = system: HCT-116; test: Log of molar concentration leading to 50% cell death against colon cancer HCT116 cell line was reported; assay type: functional; conditions: Homo sapiens, read-out: Log LC50 (the source's name) (converted)
# [10] = system: HCT-116; test: In vitro total growth inhibition against colon cancer HCT116 cell lines was reported.; assay type: functional; conditions: Homo sapiens, read-out: Log TGI (converted)
# [11] = system: SF-295; test: In vitro growth inhibition against CNS cancer SF-295 cell line was reported.; assay type: functional; conditions: Homo sapiens
# [12] = system: SF-539; test: Log of molar concentration leading to 50% cell death against CNS cancer SF-539 cell line was reported; assay type: functional; conditions: Homo sapiens, read-out: Log LC50 (the source's name) (converted)
# [13] = system: SF-539; test: In vitro total growth inhibition against CNS cancer SF-539 cell lines was reported.; assay type: functional; conditions: Homo sapiens, read-out: Log TGI (converted)
# [14] = system: U-251; test: In vitro growth inhibition against CNS cancer U251 cell line was reported.; assay type: functional; conditions: Homo sapiens
# [15] = system: U-251; test: In vitro total growth inhibition against CNS cancer U251 cell lines was reported.; assay type: functional; conditions: Homo sapiens, read-out: Log TGI (converted)
# [16] = system: Tumor Cell line; test: Log of molar concentration leading to 50% cell death was reported; assay type: functional; conditions: Homo sapiens, read-out: Log LC50 (the source's name) (converted)
# [17] = system: K562; test: In vitro growth inhibition against leukemia K-562 cell line was reported.; assay type: functional; conditions: Homo sapiens
# [18] = system: K562; test: In vitro total growth inhibition against leukemia K-562 cell lines was reported.; assay type: functional; conditions: Homo sapiens, read-out: Log TGI (converted)
# [19] = system: RPMI-8226; test: In vitro total growth inhibition against leukemia […] cell lines was reported.; assay type: functional; conditions: Homo sapiens, read-out: Log TGI (converted)
# [20] = system: MOLT-4; test: In vitro growth inhibition against leukemia MOLT-4 cell line was reported.; assay type: functional; conditions: Homo sapiens
# [21] = system: M14; test: In vitro growth inhibition against melanoma M14 cell line was reported.; assay type: functional; conditions: Homo sapiens
# [22] = system: Malme-3M; test: In vitro growth inhibition against melanoma MALME 3M cell line was reported.; assay type: functional; conditions: Homo sapiens
# [23] = system: UACC-62; test: In vitro growth inhibition against melanoma UACC-62 cell line was reported.; assay type: functional; conditions: Homo sapiens
# [24] = system: EKVX; test: Log of molar concentration leading to 50% cell death against non-small-cell lung cancer EKVX cell line was reported; assay type: functional; conditions: Homo sapiens, read-out: Log LC50 (the source's name) (converted)
# [25] = system: HOP-62; test: Log of molar concentration leading to 50% cell death against non-small-cell lung cancer HOP-62 cell line was reported; assay type: functional; conditions: Homo sapiens, read-out: Log LC50 (the source's name) (converted)
# [26] = system: HOP-62; test: In vitro total growth inhibition against non-small-cell lung cancer HOP-62 cell lines was reported.; assay type: functional; conditions: Homo sapiens, read-out: Log TGI (converted)
# [27] = system: NCI-H23; test: In vitro total growth inhibition against non-small-cell lung cancer NCI-H23 cell lines was reported.; assay type: functional; conditions: Homo sapiens, read-out: Log TGI (converted)
# [28] = system: NCI-H322M; test: Log of molar concentration leading to 50% cell death against non-small-cell lung cancer NCI-H322M cell line was reported; assay type: functional; conditions: Homo sapiens, read-out: Log LC50 (the source's name) (converted)
# [29] = system: OVCAR-5; test: In vitro growth inhibition against ovarian cancer OVCAR-5 cell line was reported.; assay type: functional; conditions: Homo sapiens
# [30] = system: SK-OV-3; test: In vitro growth inhibition against ovarian cancer SK-OV-3 cell line was reported.; assay type: functional; conditions: Homo sapiens
# [31] = system: DU-145; test: In vitro total growth inhibition against prostate cancer […] cell lines was reported.; assay type: functional; conditions: Homo sapiens, read-out: Log TGI (converted)
# [32] = system: ACHN; test: In vitro total growth inhibition against renal cancer ACHN cell lines was reported.; assay type: functional; conditions: Homo sapiens, read-out: Log TGI (converted)
# [33] = system: CAKI-1; test: In vitro growth inhibition against renal cancer CAKI-1 cell line was reported.; assay type: functional; conditions: Homo sapiens
# [34] = system: RXF 393; test: In vitro growth inhibition against renal cancer RXF 393 cell line was reported.; assay type: functional; conditions: Homo sapiens
# [35] = system: 786-0; test: In vitro total growth inhibition against renal cancer […] cell lines was reported.; assay type: functional; conditions: Homo sapiens, read-out: Log TGI (converted)
# [36] = system: SN12C; test: In vitro growth inhibition against renal cancer SN12C cell line was reported.; assay type: functional; conditions: Homo sapiens
# [37] = system: TK-10; test: In vitro total growth inhibition against renal cancer TK-10 cell lines was reported.; assay type: functional; conditions: Homo sapiens, read-out: Log TGI (converted)
# [38] = system: RPMI-8226; test: Log of molar concentration leading to 50% cell death against leukemia […] cell line was reported; assay type: functional; conditions: Homo sapiens, read-out: Log LC50 (the source's name) (converted)
# [39] = system: HL-60; test: Log of molar concentration leading to 50% cell death against leukemia HL-60(TB) cell line was reported; assay type: functional; conditions: Homo sapiens, read-out: Log LC50 (the source's name) (converted)
# [40] = system: OVCAR-3; test: Log of molar concentration leading to 50% cell death against ovarian cancer OVCAR-3 cell line was reported; assay type: functional; conditions: Homo sapiens, read-out: Log LC50 (the source's name) (converted)
# [41] = system: OVCAR-4; test: Log of molar concentration leading to 50% cell death against ovarian cancer OVCAR-4 cell line was reported; assay type: functional; conditions: Homo sapiens, read-out: Log LC50 (the source's name) (converted)
# [42] = system: MCF7; test: Log of molar concentration leading to 50% cell death against breast cancer MCF 7 cell line was reported; assay type: functional; conditions: Homo sapiens, read-out: Log LC50 (the source's name) (converted)
# [43] = system: MDA-MB-231; test: Log of molar concentration leading to 50% cell death against breast cancer MDA-MB-231/ATCC cell line was reported; assay type: functional; conditions: Homo sapiens, read-out: Log LC50 (the source's name) (converted)
# [44] = system: M14; test: Log of molar concentration leading to 50% cell death against melanoma M14 cell line was reported; assay type: functional; conditions: Homo sapiens, read-out: Log LC50 (the source's name) (converted)
# [45] = system: M14; test: In vitro total growth inhibition against melanoma M14 cell lines was reported.; assay type: functional; conditions: Homo sapiens, read-out: Log TGI (converted)
# [46] = system: SK-MEL-5; test: Log of molar concentration leading to 50% cell death against melanoma SK-MEL-5 cell line was reported; assay type: functional; conditions: Homo sapiens, read-out: Log LC50 (the source's name) (converted)
# [47] = system: UACC-257; test: Log of molar concentration leading to 50% cell death against melanoma UACC-257 cell line was reported; assay type: functional; conditions: Homo sapiens, read-out: Log LC50 (the source's name) (converted)
# [48] = system: HOP-62; test: In vitro growth inhibition against non-small-cell lung cancer HOP-62 cell line was reported.; assay type: functional; conditions: Homo sapiens
# [49] = system: NCI-H522; test: In vitro growth inhibition against non-small-cell lung cancer […] cell line was reported.; assay type: functional; conditions: Homo sapiens
# [50] = system: NCI-H226; test: In vitro growth inhibition against non-small-cell lung cancer NCI-H226 cell line was reported.; assay type: functional; conditions: Homo sapiens
# [51] = system: NCI-H23; test: In vitro growth inhibition against non-small-cell lung cancer NCI-H23 cell line was reported.; assay type: functional; conditions: Homo sapiens
# [52] = system: OVCAR-3; test: In vitro growth inhibition against ovarian cancer OVCAR-3 cell line was reported.; assay type: functional; conditions: Homo sapiens
# [53] = system: IGROV-1; test: In vitro growth inhibition against ovarian cancer IGROV1 cell line was reported.; assay type: functional; conditions: Homo sapiens
# [54] = system: PC-3; test: In vitro growth inhibition against prostate cancer PC-3 cell line was reported.; assay type: functional; conditions: Homo sapiens
# [55] = system: ACHN; test: In vitro growth inhibition against renal cancer ACHN cell line was reported.; assay type: functional; conditions: Homo sapiens
# [56] = system: LOX IMVI; test: In vitro growth inhibition against melanoma LOX IMVI cell line was reported.; assay type: functional; conditions: Homo sapiens
# [57] = system: HT-29; test: In vitro growth inhibition against colon cancer HT-29 cell line was reported.; assay type: functional; conditions: Homo sapiens
# [58] = system: OVCAR-8; test: Log of molar concentration leading to 50% cell death against ovarian cancer OVCAR-8 cell line was reported; assay type: functional; conditions: Homo sapiens, read-out: Log LC50 (the source's name) (converted)
# [59] = system: MDA-MB-435; test: In vitro total growth inhibition against breast cancer MDA-MB-435 cell lines was reported.; conditions: Homo sapiens, read-out: Log TGI (converted)
smiles,measurement,setting,value
O=C(Nc1nccs1)c1cc2c(cc1Cl)Sc1nccn1S2(=O)=O,TGI,[1],64.6 µM
same,GI50,[2],19.5 µM
same,GI50,[3],19.1 µM
same,GI50,[4],23.4 µM
same,CC50,[5],56.2 µM
same,TGI,[6],30.9 µM
same,GI50,[7],15.8 µM
same,TGI,[8],29.5 µM
same,CC50,[9],55 µM
same,TGI,[10],29.5 µM
same,GI50,[11],18.2 µM
same,CC50,[12],72.4 µM
same,TGI,[13],37.2 µM
same,GI50,[14],17.4 µM
same,TGI,[15],30.9 µM
same,CC50,[16],97.7 µM
same,GI50,[17],15.8 µM
same,TGI,[18],46.8 µM
same,TGI,[19],23.4 µM
same,GI50,[20],19.1 µM
same,GI50,[21],17.8 µM
same,GI50,[22],20 µM
same,GI50,[23],14.5 µM
same,CC50,[24],97.7 µM
same,CC50,[25],61.7 µM
same,TGI,[26],30.2 µM
same,TGI,[27],33.9 µM
same,CC50,[28],64.6 µM
same,GI50,[29],21.9 µM
same,GI50,[30],24.5 µM
same,TGI,[31],30.2 µM
same,TGI,[32],32.4 µM
same,GI50,[33],8.51 µM
same,GI50,[34],19.1 µM
same,TGI,[35],29.5 µM
same,GI50,[36],17 µM
same,TGI,[37],34.7 µM
same,CC50,[38],57.5 µM
same,CC50,[39],70.8 µM
same,CC50,[40],53.7 µM
same,CC50,[41],91.2 µM
same,CC50,[42],44.7 µM
same,CC50,[43],67.6 µM
same,CC50,[44],67.6 µM
same,TGI,[45],34.7 µM
same,CC50,[46],55 µM
same,CC50,[47],52.5 µM
same,GI50,[48],14.8 µM
same,GI50,[49],1.23 µM
same,GI50,[50],19.5 µM
same,GI50,[51],17 µM
same,GI50,[52],15.1 µM
same,GI50,[53],11.7 µM
same,GI50,[54],17 µM
same,GI50,[55],17.8 µM
same,GI50,[56],11 µM
same,GI50,[57],20 µM
same,CC50,[58],79.4 µM
same,TGI,[59],31.6 µM

# — ChEMBL document CHEMBL1135808, “A new type of mixed anhydride and its applications to the synthesis of 7-substituted 8-chloro-5,5-dioxoimidazo[1,2-b][1,4,2]benzodithiazines with in vitro antitumor activity” (2002)
